The results in this text go back to publication PMC8509398, “Proteolytic Cleavage of Bioactive Peptides and Protease-Activated Receptors in Acute and Post-Colitis” (International Journal of Molecular Sciences, 2021).

Settings in all cases: 25 nM protease, 10 µM peptide
The target of one series is trypsin-2 (Homo sapiens, UniProt P07478). In words: Cleavage of peptides by purified trypsin-2, MALDI-TOF/TOF. An excerpt:
(§1) Trypsin-like proteases included in the experiments are trypsin-1, -2 and -3, tryptase (Enzo LifeSciences), thrombin (Sigma-Aldrich) and cathepsin G (Sigma-Aldrich). Trypsin-1, -2 and -3 were produced as described by Koistinen et al. and Wu et al.. Two elastase-like enzymes, neutrophil elastase (Enzo LifeSciences, Farmingdale, NY, USA) and pancreatic elastase I (Sigma-Aldrich) were included as well. All enzymes were from human origin except for pancreatic elastase from porcine pancreas.
(§2) Reaction mixtures with purified enzymes were compiled in an identical way. Each mixture contained an equimolar concentration of protease (25 nM based on) and 10 µM peptide of interest and was incubated for 2, 5, 10 and 30 min at 37 °C. Substance P was added as the standard peptide except for the reaction mixtures with substance P or bradykinin as the peptide of interest, where angiotensin II (Bachem) was added.
(§3) The TFA mixtures were thawed on ice and desalted using C18 zip-tips (Merck Millipore®, Burlington, MA, USA) with a capacity of 5 µg protein. Retained peptide fragments were eluted directly on the MALDI target plate. Next, 0.5 µL of a 2.5 mg/mL α-cyano-4-hydroxycinnamic acid (Sigma-Aldrich) matrix solution (in 70% acetonitrile, 0.1% TFA) was spotted on top of the sample. A 6-Peptide mixture Kit (AB Sciex, Framingham, MA, USA) containing bradykinin (2–9), angiotensin I, glu1-fibrinopeptide, ACTH (1–17), ACTH (18–39) and ACTH (7–38) was diluted with matrix and spotted on the plate as well.
(§4) MS and MS/MS data for peptide fragment identification were obtained with a MALDI-TOF/TOF instrument (4800 MALDI TOF/TOF™, Applied Biosystems, Waltham, MA, USA) and instrument parameters were set using 4000 Series Explorer™ software. MS spectra were recorded in positive reflector mode in a mass range from 500 to 4000 Da and laser intensity of 4500–4800 Hz. The spectra were calibrated using the calibration mixture mentioned above to a mass tolerance of 0.1 Da. MS/MS spectra were recorded with high-energy collision-induced dissociation and the laser intensity was increased by 10%. Precursor mass m/z 1570.65 (Glu1-Fibrinopeptide from the calibration mixture) was used to calibrate the MS/MS spectra to a mass tolerance of 0.1 Da.
(§5) MS and MS/MS spectra were processed using DataExplorer™ software and the obtained output files were uploaded in the MS-PEP data analyzer (https://bioit.shinyapps.io/PARs/ accessed 10/08/2020) for peptide fragment identification. Identified fragments were confirmed using the MS/MS spectra and mMass 5.5.0 by Martin Strohalm. The relative intensities of the fragments were calculated as the ratio of the intensity of the peak of interest to the intensity of the peak of the standard peptide.

The target of a further series is trypsin-1 (Homo sapiens, UniProt P07477). Nature of the series: Cleavage of peptides by purified trypsin-1, MALDI-TOF/TOF.
Excerpt: as §1, §2, §3, §4, §5

The target in another series is T1, cathepsin G (Homo sapiens, UniProt P08311).
T1 sequence (P08311 21-255): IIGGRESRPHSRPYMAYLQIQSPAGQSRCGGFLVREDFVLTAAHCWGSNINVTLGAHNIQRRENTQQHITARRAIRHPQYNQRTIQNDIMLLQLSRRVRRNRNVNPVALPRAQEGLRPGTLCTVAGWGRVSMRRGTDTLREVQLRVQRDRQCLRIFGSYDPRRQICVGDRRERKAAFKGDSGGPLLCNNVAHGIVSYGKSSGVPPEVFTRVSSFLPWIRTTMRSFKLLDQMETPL
Nature of the series: Cleavage of peptides by purified cathepsin G, MALDI-TOF/TOF.
Excerpt: as §1
(§6) Reaction mixtures with purified enzymes were compiled in an identical way. […] Substance P was added as the standard peptide except for the reaction mixtures with substance P or bradykinin as the peptide of interest, where angiotensin II (Bachem) was added.
as §3
(§7) MS and MS/MS data for peptide fragment identification were obtained with a MALDI-TOF/TOF instrument (4800 MALDI TOF/TOF™, Applied Biosystems, Waltham, MA, USA) and instrument parameters were set using 4000 Series Explorer™ software. MS spectra were recorded in positive reflector mode in a mass range from 500 to 4000 Da and laser intensity of 4500–4800 Hz. The spectra were calibrated using the calibration mixture mentioned above to a mass tolerance of 0.1 Da. MS/MS spectra were recorded with high-energy collision-induced dissociation and the laser intensity was increased by 10%.
(§8) Identified fragments were confirmed using the MS/MS spectra and mMass 5.5.0 by Martin Strohalm. The relative intensities of the fragments were calculated as the ratio of the intensity of the peak of interest to the intensity of the peak of the standard peptide.

The next series concerns the target pancreatic elastase I (Sus scrofa, UniProt P00772). Nature of the series: Cleavage of peptides by purified pancreatic elastase, MALDI-TOF/TOF.
The target in the next series is T2, trypsin-3 (Homo sapiens, UniProt P35030).
T2 sequence (P35030 1-304): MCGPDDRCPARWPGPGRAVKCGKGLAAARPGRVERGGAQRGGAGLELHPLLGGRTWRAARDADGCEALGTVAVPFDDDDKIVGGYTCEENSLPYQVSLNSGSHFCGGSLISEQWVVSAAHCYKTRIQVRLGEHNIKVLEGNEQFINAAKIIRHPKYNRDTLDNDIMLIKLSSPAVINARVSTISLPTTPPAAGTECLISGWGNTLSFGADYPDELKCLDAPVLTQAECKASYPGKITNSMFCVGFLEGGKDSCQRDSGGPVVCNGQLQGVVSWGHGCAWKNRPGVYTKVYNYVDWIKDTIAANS
Nature of the series: Cleavage of peptides by purified trypsin-3, MALDI-TOF/TOF.
Excerpt: as §1, §2, §3, §4, §5

The target of another series is T3, neutrophil elastase (Homo sapiens, UniProt P08246).
T3 sequence (P08246 30-267): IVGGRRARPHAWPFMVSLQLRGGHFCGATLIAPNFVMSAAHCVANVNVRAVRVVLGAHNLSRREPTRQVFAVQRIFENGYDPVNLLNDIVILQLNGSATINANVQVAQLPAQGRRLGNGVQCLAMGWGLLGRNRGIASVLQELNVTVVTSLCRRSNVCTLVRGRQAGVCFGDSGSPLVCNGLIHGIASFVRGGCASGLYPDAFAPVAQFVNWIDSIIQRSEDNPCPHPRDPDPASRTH
Nature of the series: Cleavage of peptides by purified neutrophil elastase, MALDI-TOF/TOF.
Excerpt: as §1, §6, §3, §7, §8

For the next series, the target named is tryptase (Homo sapiens, UniProt Q15661). Nature of the series: Cleavage of peptides by purified tryptase, MALDI-TOF/TOF.
Chain of tryptase (Q15661 31-275): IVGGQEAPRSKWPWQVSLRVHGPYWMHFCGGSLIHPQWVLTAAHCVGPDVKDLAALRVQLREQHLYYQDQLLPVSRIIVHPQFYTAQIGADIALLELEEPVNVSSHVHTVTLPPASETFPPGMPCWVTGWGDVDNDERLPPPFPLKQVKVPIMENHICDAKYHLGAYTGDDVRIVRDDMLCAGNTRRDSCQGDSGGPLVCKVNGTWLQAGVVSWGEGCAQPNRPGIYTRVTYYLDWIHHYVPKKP
Excerpt: as §1, §2, §3, §4, §5

For a further series, the target named is thrombin (Homo sapiens, UniProt P00734). In words: Cleavage of peptides by purified thrombin, MALDI-TOF/TOF.
Excerpt: as §1, §2, §3, §4, §5

The mark [1] stands for this setting: 37 °C, time points 2, 5, 10, 30 min.
Where [2] appears, read: PAR-based peptides, 37 °C, 2, 5, 10 and 30 min.

Each structure is given as a SMILES string. Residues, ends and D or L forms follow the SMILES beside them.

Chain of trypsin-2 (P07478 24-247): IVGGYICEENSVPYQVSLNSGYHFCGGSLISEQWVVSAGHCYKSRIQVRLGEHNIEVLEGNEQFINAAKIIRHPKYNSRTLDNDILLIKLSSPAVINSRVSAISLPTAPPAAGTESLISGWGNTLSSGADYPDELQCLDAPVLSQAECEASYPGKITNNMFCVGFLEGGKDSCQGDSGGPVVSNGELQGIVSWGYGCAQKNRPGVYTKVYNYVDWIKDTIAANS
Chain of pancreatic elastase I (P00772 27-266): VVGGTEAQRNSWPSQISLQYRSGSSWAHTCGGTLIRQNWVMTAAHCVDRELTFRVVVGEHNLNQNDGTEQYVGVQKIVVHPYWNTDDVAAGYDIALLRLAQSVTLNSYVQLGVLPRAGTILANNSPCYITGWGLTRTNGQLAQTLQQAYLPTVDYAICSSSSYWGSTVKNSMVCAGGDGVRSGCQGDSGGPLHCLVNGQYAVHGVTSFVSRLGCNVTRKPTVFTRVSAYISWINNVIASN

Turning to `CC[C@H](C)[C@H](NC(=O)[C@H](CC(C)C)NC(=O)[C@H](CO)NC(=O)[C@H](CCCNC(=N)N)NC(=O)CNC(=O)[C@H](CCCCN)NC(=O)[C@H](CO)NC(=O)[C@H](CO)NC(=O)[C@H](CCCNC(=N)N)NC(=O)[C@H](CC(N)=O)NC(=O)[C@@H](NC(=O)CNC(=O)[C@H](CCC(N)=O)NC(=O)[C@@H](NC(=O)[C@@H](N)[C@@H](C)O)[C@@H](C)CC)[C@@H](C)O)C(=O)NCC(=O)N[C@@H](CCCCN)C(=O)N[C@H](C(=O)N[C@@H](CC(=O)O)C(=O)NCC(=O)N[C@H](C(=O)N[C@@H](CO)C(=O)N[C@@H](Cc1c[nH]cn1)C(=O)N[C@H](C(N)=O)C(C)C)[C@@H](C)O)C(C)C` [PAR2-based] (H-TIQGTNRSSKGRSLIGKVDGTSHV-NH2), the “Incubation time at which the first cleavage or decrease of the full-length peptide was observed, trypsin-2” value on trypsin-2 (setting [1]) is recorded as 2 min. On trypsin-2 (setting [2]), the “TL disarming (D), Trypsin-2” value was “−” and the “TL unmasking (U), Trypsin-2” value is reported as “+++ (ultrafast processing within 2 min)”. Further, on trypsin-1 (setting [1]), the “Incubation time at which the first cleavage or decrease of the full-length peptide was observed, trypsin-1” value is given as 2 min. In addition, at trypsin-1 (setting [2]), the “TL disarming (D), Trypsin-1” value is “−” and the “TL unmasking (U), Trypsin-1” value is recorded as “+++ (ultrafast processing within 2 min)”. The “Incubation time at which the first cleavage or decrease of the full-length peptide was observed, cathepsin G” value on cathepsin G (setting [1]) is given as over 30 min. Moreover, on cathepsin G (setting [2]), the “TL disarming (D), Cathepsin G” value is reported as “−” and the “TL unmasking (U), Cathepsin G” value is on record as “−”. The “Incubation time at which the first cleavage or decrease of the full-length peptide was observed, pancreatic elastase” value at pancreatic elastase I (setting [1]) is listed as over 30 min. For the same compound, at pancreatic elastase I (setting [2]), the “TL disarming (D), Pancreatic Elastase” value is recorded as “−” and the “TL unmasking (U), Pancreatic Elastase” value is listed as “−”. Also, the “Incubation time at which the first cleavage or decrease of the full-length peptide was observed, trypsin-3” value at trypsin-3 (setting [1]) is reported as over 30 min. Further, at trypsin-3 (setting [2]), the “TL disarming (D), Trypsin-3” value is on record as “−” and the “TL unmasking (U), Trypsin-3” value is given as “−”. Also, the “Incubation time at which the first cleavage or decrease of the full-length peptide was observed, neutrophil elastase” value at neutrophil elastase (setting [1]) was found to be 30 min. On neutrophil elastase (setting [2]), the “TL disarming (D), Neutrophil Elastase” value is reported as “+ (processing after 10 or 30 min)” and the “TL unmasking (U), Neutrophil Elastase” value is “−”. Further, the “Incubation time at which the first cleavage or decrease of the full-length peptide was observed, tryptase” value on tryptase (setting [1]) is on record as 2 min. Besides, at tryptase (setting [2]), the “TL disarming (D), Tryptase” value is “−” and the “TL unmasking (U), Tryptase” value is recorded as “+++ (ultrafast processing within 2 min)”. Further, the “Incubation time at which the first cleavage or decrease of the full-length peptide was observed, thrombin” value at thrombin (setting [1]) is reported as over 30 min. Also, at thrombin (setting [2]), the “TL disarming (D), Thrombin” value is reported as “−” and the “TL unmasking (U), Thrombin” value was “−”.
